Measured values: patent publication US20190374554A1, “USE OF OXYGENATED CHOLESTEROL SULFATES (OCS) TO TREAT INFLAMMATORY SKIN DISEASE AND SKIN LESIONS” (Virginia Commonwealth University, priority 2016, published 2019)
Entries after “also recorded” stand apart in the source; their conditions may differ.

How the values were obtained:
[1] = system: chronic dermatitis; assay: Case report: topical therapy of chronic dermatitis following poison ivy attack; assay type: in vivo, Human; conditions: one person, topical once every three days, three applications
Procedure: A case report: A volunteer had been suffering from chronic dermatitis with intense itching following a poison ivy attack two years earlier. The affected area was externally treated with 0.5 ml of 5 mg/ml of 25HC3S sodium salt in a body lotion (Cococare®, Vitamin E Cream) once every three days for a total of three applications.

[2] = First cadaver skin flux study (radiolabelled 25HC3S, diffusion cells, % dose recovered); assay type: in vitro ADME; conditions: from comparison of formulations in cadaver skin study
Procedure: The formulations shown in the below Table 22 were made. Each of the below formulations containing drug included 1 wt % non-radiolabelled 25HC3S since the maximum drug loading achieved in Carbopol based creams or gels was 1 wt %. In positive control C1, 20 wt % DMSO was included in EtOH to achieve 1 wt % drug loading.
The procedure for mixing radiolabelled C^14-25HC3S with each formulation was as follows. Formulation (1 mL of each) was placed into 1 mL vials. To each vial was added 5 μL EtOH containing hot material ([…] radiolabelled 25HC3S). The mixture was mixed using a small plunger for 4 to 5 minutes until uniform.
The above formulations were tested on cadaver skin as follows. Dermatomed cadaver skin was obtained from thigh and abdominal areas. A total of 4 donor skin samples (4 separate experiments) were used in the study. Skin samples were placed on diffusion cells (see below) at least 2 hours prior to dosing. Skin sample integrity was examined by measuring […] water loss (TEWL).
The diffusion cells had 1 cm^2 surface area. Each sample at each testing point had 2-3 replicates.
The dose was 10-25 μL of formulation each containing 0.2-0.5 μCi radioactivity per diffusion cell.
The receptor fluid was 6% PEG 400 in PBS. The receptor fluid flow rate was continuous flow at 4.7 mL/hr.
For dose application, the net amount was determined by weight difference before and after dosing application.
The total skin exposure time was 24 hours. After 8 hours of skin exposure, skin surface dose residues were removed by 5% soap-water washing as follows: (1) two times with small cotton balls wetted with 5% clear Ivory® liquid soap (Proctor and Gamble); and (2) two times with cotton balls wetted with distilled de-ionized water to recover the residual drug content, and a final drying with a dry cotton ball. After 16 hours of additional skin exposure (after skin washing), the experiment was finished.
The dosed skin was first tape stripped 10 times followed with heat separation of viable epidermis and dermis. Receptor fluid samples were collected at 30 min, 1 hour, 2 hour, and every 2 hours until the end of the experiment. All samples were counted for radioactivity

Molecule | itching, redness and swelling ([1]; 0.5 ml of 5 mg/ml in body lotion (Cococare Vitamin E Cream)) | skin recovery ([1]; 0.5 ml of 5 mg/ml in body lotion) | trend as permeation enhancer (PE) [2]
C[C@H](CCCC(C)(C)O)[C@H]1CC[C@H]2[C@@H]3CC=C4CC(OS(=O)(=O)[O-])CC[C@]4(C)[C@H]3CC[C@]12C.[Na+] (stereo partly drawn) [25HC3S sodium salt, 5-cholesten-3, 25-diol, 3-sulfate] | Within two days, the itching subsided, and redness and swelling decreased | almost completely recovered in 10 days | –
CCO [EtOH, ethanol] | – | – | high PE; also recorded: great permeation enhancer
CCCCCCCCCCCCOC(=O)C(C)O (stereo not drawn) [LL, Lauryl lactate] | – | – | may be more effective than PG
CC(O)CO (stereo not drawn) [PG, propylene glycol] | – | – | may be about the same as OA; also recorded: good permeation enhancer
PEG 400 | – | – | poor permeation enhancer
